Measured values published in ChEMBL document CHEMBL5523751, “Discovery of Novel Diaryl-Substituted Fused Heterocycles Targeting Katanin and Tubulin with Potent Antitumor and Antimultidrug Resistance Efficacy” (J Med Chem, 2024).
In brackets after ≈: the same amount, converted by molar mass. Activity calls are given as the source filed them. No cut-off for these calls is given here.

Columns and labels:
MCF7 [1] = test: Induction of apoptosis in human MCF7 cells assessed as viable cells at 20 nM measured after 48 hrs by annexin-FITC and propidium iodide staining based flow cytometry analysis (reference value: 94.69%); assay type: functional; settings: read-out: Activity
MCF7 [2] = test: Inhibition of colony formation in human MCF7 cells at 5 to 10 nM incubated for 48 hrs; assay type: functional, cell-based; settings: dose 5-10 nM
MCF7 [3] = test: Induction of apoptosis in human MCF7 cells assessed as late apoptotic cells at 10 nM measured after 48 hrs by annexin-FITC and propidium iodide staining based flow cytometry analysis (reference value: 3.93%); assay type: functional
MDA-MB-231 [4] = test: Inhibition of cell migration in human MDA-MB-231 cells assessed as reduction in number of cell migrated at 10 to 40 nM incubated for 24 hrs by crystal violet staining based analysis; assay type: functional; settings: dose 10-40 nM
[5] = Water solubility of the compound at pH 7.4 by HPLC analysis; assay type: physicochemical
MCF7 [6] = test: Induction of apoptosis in human MCF7 cells assessed as viable cells at 40 nM measured after 48 hrs by annexin-FITC and propidium iodide staining based flow cytometry analysis (reference value: 94.69%); assay type: functional; settings: read-out: Activity
MDA-MB-231 [7] = test: Antiproliferative activity against human MDA-MB-231 cells assessed as inhibition of cell growth measured after 48 hrs by MTT assay; assay type: functional, cell-based; settings: MDA-MB-231, 48 h
MDA-MB-468 = test: Antiproliferative activity against human MDA-MB-468 cells assessed as inhibition of cell growth measured after 48 hrs by MTT assay; assay type: functional, cell-based; settings: MDA-MB-468, 48 h
[8] = Acute toxicity in ICR mouse assessed as animal death at 50 mg/kg, ip measured after upto 14 days; assay type: organism-based; settings: in vivo, 336 h, time < 14 day
A549/TR = test: Antitumor activity against paclitaxel resistant human A549/Taxol cells xenografted in BALB/c nude mouse model assessed as inhibition of tumor growth at 15 mg/kg, ip measured after 14 days relative to control; assay type: functional; parameters: scale not given: the % may be the effect or the level left; settings: time 14 day
MCF7 [9] = test: Induction of apoptosis in human MCF7 cells assessed as upregulation of bad protein level by Western blot analysis; assay type: functional, cell-based; settings: dose 10-40 nM
MCF7 [10] = test: Induction of apoptosis in human MCF7 cells assessed as early apoptotic cells at 20 nM measured after 48 hrs by annexin-FITC and propidium iodide staining based flow cytometry analysis (reference value: 1.20%); assay type: functional
MDA-MB-231 [11] = test: Antitumor activity against human MDA-MB-231 cells xenografted in BALB/c nude mouse model assessed as tumor weight reduction at 15 mg/kg, ip measured after 14 days relative to control; assay type: functional; parameters: scale not given: the % may be the effect or the level left; settings: time 14 day
[12] = AUC (0 to infinity) in mouse at 15 mg/kg, po measured upto 24 hrs by LC-MS/MS analysis; assay type: ADME, organism-based; settings: in vivo
[13] = Toxicity in Balb/C nude mouse assessed as effect on body weight loss at 15 mg/kg, ip measured upto 2 weeks; assay type: organism-based; settings: in vivo, 336 h
A2780 = test: Antiproliferative activity against human A2780 cells assessed as inhibition of cell growth measured after 48 hrs by MTT assay; assay type: functional, cell-based; settings: A2780, 48 h
MCF7 [14] = test: Induction of apoptosis in human MCF7 cells assessed as upregulation of p53 protein level by Western blot analysis; assay type: functional, cell-based; settings: dose 10-40 nM
MCF7 [15] = test: Induction of apoptosis in human MCF7 cells assessed as viable cells at 10 nM measured after 48 hrs by annexin-FITC and propidium iodide staining based flow cytometry analysis (reference value: 94.69%); assay type: functional; settings: read-out: Activity
[16] = Acute toxicity in ICR mouse assessed as animal death at 200 mg/kg, ip measured after 3 to 14 days; assay type: organism-based; settings: in vivo, time 3-14 day
[17] = Acute toxicity in ICR mouse assessed as animal death at 300 mg/kg, ip measured after 2 days; assay type: organism-based; settings: in vivo, 48 h, time 2 day
[18] = Antiproliferative activity against human HUVEC cells assessed as cell viability at 30 to 60 nM measured after 6 hrs by MTT assay relative to control; assay type: toxicity, cell-based; settings: dose 30-60 nM, read-out: Activity
SK-OV-3 = test: Antiproliferative activity against human SK-OV-3 cells assessed as inhibition of cell growth measured after 48 hrs by MTT assay; assay type: functional, cell-based; settings: SK-OV-3, 48 h
MDA-MB-231 [19] = test: Antitumor activity against human MDA-MB-231 cells xenografted in BALB/c nude mouse model assessed as increase in tumor necrosis at 7.5 to 15 mg/kg, ip measured after 14 days by H and E staining based analysis; assay type: functional, organism-based; settings: dose 7.5-15 mg/kg, time 14.0 day
MCF7 [20] = test: Induction of apoptosis in human MCF7 cells assessed as early apoptotic cells at 40 nM measured after 48 hrs by annexin-FITC and propidium iodide staining based flow cytometry analysis (reference value: 1.20%); assay type: functional
MCF7 [21] = test: Upregulation of cyclin-B1 expression level in human MCF7 cells at 1 to 10 nM by Western blot analysis; assay type: functional, cell-based; settings: dose 1-10 nM
[22] = biological target: T1, Katanin p60 ATPase-containing subunit A1 (Homo sapiens, UniProt O75449); test: Binding affinity to C-terminal human Katanin p60 (111 to 491 residues) expressed in Escherichia coli Rosetta (DE3) assessed as dissociation constant by SPR analysis
[23] = Oral bioavailability in mouse at 15 mg/kg measured upto 24 hrs by LC-MS/MS analysis; assay type: ADME, organism-based; settings: in vivo
MCF7 [24] = test: Antiproliferative activity against human MCF7 cells assessed as inhibition of cell growth measured after 48 hrs by MTT assay; assay type: functional, cell-based; settings: MCF7, 48 h
[25] = biological target: T1, Katanin p60 ATPase-containing subunit A1; test: Induction of thermal stabilization in N-terminal human Katanin p60 (8 to 229 residues) expressed in Escherichia coli Rosetta (DE3) at 10 uM by thermal shift assay

T1 sequence (O75449 whole entry, the tested form may be a part): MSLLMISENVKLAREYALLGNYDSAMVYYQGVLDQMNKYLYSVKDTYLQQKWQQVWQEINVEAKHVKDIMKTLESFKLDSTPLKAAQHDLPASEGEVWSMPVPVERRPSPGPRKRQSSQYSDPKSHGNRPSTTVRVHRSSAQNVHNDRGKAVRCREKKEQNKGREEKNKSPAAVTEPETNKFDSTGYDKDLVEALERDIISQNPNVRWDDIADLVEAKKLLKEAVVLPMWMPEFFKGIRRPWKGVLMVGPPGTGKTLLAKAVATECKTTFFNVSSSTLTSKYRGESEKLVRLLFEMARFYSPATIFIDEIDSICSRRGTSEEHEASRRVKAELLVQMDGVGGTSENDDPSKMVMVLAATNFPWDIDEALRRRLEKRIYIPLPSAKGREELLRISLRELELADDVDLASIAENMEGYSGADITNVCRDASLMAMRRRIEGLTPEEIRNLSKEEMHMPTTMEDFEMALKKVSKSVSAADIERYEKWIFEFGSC

COc1cc(-n2cnc3ccc(-c4ccc(C)c(N)c4)nc32)cc(OC)c1OC
viability at 0.02 µM (MCF7 [1]): 46.6%
inhibition (MCF7 [2]): Active
Activity (MCF7 [3]): 16.7%
inhibition (MDA-MB-231 [4]): Active
solubility [5]: 30 µg/mL (≈ 76.8 µM)
viability at 0.04 µM (MCF7 [6]): 40.1%
IC50 (MDA-MB-231 [7]): 20 nM
IC50 (MDA-MB-468): 10 nM
Activity [8]: Non-Toxic
Activity (A549/TR): 74%
Activity (MCF7 [9]): Dose-Dependent Effect
Activity (MCF7 [10]): 31.28%
Activity (MDA-MB-231 [11]): 84%
AUC(0-inf) [12]: 1340 ng·h/mL
Activity [13]: Non-Toxic
IC50 (A2780): 3 nM
Activity (MCF7 [14]): Dose-Dependent Effect
viability at 0.01 µM (MCF7 [15]): 53.3%
Activity [16]: Non-Toxic
Activity [17]: Non-Toxic
viability at 6 h, 0.06 µM [18]: > 90%
IC50 (SK-OV-3): 0.8 nM
Activity (MDA-MB-231 [19]): Active
Activity (MCF7 [20]): 32.55%
Activity (MCF7 [21]): Active
Kd [22]: > 50000 nM
bioavailability [23]: 40%
IC50 (MCF7 [24]): 1 nM
Activity [25]: Active
